# Laboratory results taken from patent publication US20240294541A1, “COMPOUNDS CONSTITUTING C20-MODIFIED SALINOMYCIN DERIVATIVES, A METHOD FOR OBTAINING THE SAME, A COMPOSITION CONTAINING THE SAME AND A USE OF SAID COMPOUNDS” (FILECLO SPOLKA Z OGRANICZONA ODPOWIEDZIALNOSCIA, priority 2021, published 2024).
# Like-named read-outs stand apart in the source and are kept apart here.
# What was measured:
# Type in all cases: cell-based
# [1] = tested on: BALB/3T3 (normal mouse fibroblasts); assay: In vitro cytotoxicity, SRB assay, normal BALB/3T3 fibroblasts
# [2] = tested on: MV-4-11 (human biphenotypic leukaemia); assay: In vitro cytotoxicity, MTT assay, MV-4-11; conditions: for IC50: Homo sapiens, MV4-11, read-out: IC50 (nM) MV4-11
# [3] = tested on: cancer cells; assay: In vitro cytotoxic activity on the panel of cancer cell lines (MTT/SRB), general statements; conditions: for anti-proliferative effect compared to that of the parent compound: Tables 3.1, 3.2, 4 and 5, parent compound salinomycin
# [4] = tested on: A2780Cis (cisplatin-resistant human ovarian cancer); assay: In vitro cytotoxicity, SRB assay, A2780Cis; conditions: for IC50: Homo sapiens, A2780cis
# [5] = tested on: A375 (human melanoma); assay: In vitro cytotoxicity, SRB assay, A375
# [6] = tested on: MIA PaCa-2 (human pancreatic cancer); assay: cells
# [7] = tested on: PFSK-1 (malignant primitive neuroectodermal tumour); assay: In vitro cytotoxicity, SRB assay, PFSK-1
# [8] = tested on: KG-1 (human acute myeloid leukaemia); assay: In vitro cytotoxicity, MTT assay, KG-1
# [9] = tested on: A2780 (human ovarian cancer); assay: In vitro cytotoxicity, SRB assay, A2780
# [10] = tested on: NCI-H23 (human lung cancer); assay: In vitro cytotoxicity, SRB assay, NCI-H23
# [11] = tested on: SNU-16 (human gastric cancer); assay: cells
# [12] = tested on: PLC/PRF/5 (human liver cancer); assay: cells
# [13] = tested on: Hs294T (human melanoma); assay: cells
# [14] = Table 5, BALB/3T3 normal mouse fibroblasts, read-out: IC50 (nM) BALB3T3 normal cells
# [15] = selectivity coefficient vs normal BALB/3T3 cells
smiles,measurement,setting,value
CC[C@@H](C(=O)[C@@H](C)[C@@H](O)[C@H](C)[C@@H]1O[C@@H]([C@@H](CC)C(=O)O)CC[C@@H]1C)[C@H]1O[C@]2(C=C[C@@H](NC(=O)C(=O)NCc3ccccc3OC)[C@]3(CC[C@@](C)([C@H]4CC[C@](O)(CC)[C@H](C)O4)O3)O2)[C@H](C)C[C@@H]1C [FLC-00491-1•Na],IC50,[1]; [14],411 nM
same,SI MV4-11,[2],65.3
same,IC50,[2],6.3 nM
same,anti-proliferative effect compared to that of the parent compound,[3],several times more potent compared to that of the parent compound
same,SI A2780Cis,[4],79.2
same,IC50,[4]; read-out: IC50 (nM) A2780Cis,5.19 nM
CCCCCCCCNC(=O)N[C@@H]1C=C[C@]2(O[C@H]([C@@H](CC)C(=O)[C@@H](C)[C@@H](O)[C@H](C)[C@@H]3O[C@@H]([C@@H](CC)C(=O)O)CC[C@@H]3C)[C@@H](C)C[C@H]2C)O[C@@]12CC[C@@](C)([C@H]1CC[C@](O)(CC)[C@H](C)O1)O2 [FLC-00366-1],IC50,"[5]; Homo sapiens, A-375, 72 h with compound, SRB, n/a = non-active compound, read-out: A375 IC50",69.4 nM
same,A375 SI,[5]; [15],1.7
same,IC50,"[6]; Homo sapiens, MIA PaCa-2, 72 h with compound, SRB, n/a = non-active compound, read-out: MIA PaCa-2 IC50",45 nM
same,MIA PaCa-2 SI,[6]; [15],2.5
same,IC50,"[1]; Mus musculus, BALB/3T3, normal cells, 72 h with compound, SRB, n/a = non-active compound, read-out: BALB/3T3 IC50",115 nM
same,IC50,[1]; [14],115 nM
same,IC50,"[7]; Homo sapiens, PFSK-1, 72 h with compound, SRB, n/a = non-active compound, read-out: PFSK-1 IC50",4.53 nM
same,PFSK-1 SI,[7]; [15],25.3
same,"biological properties (IC50, SI) compared to the corresponding epi compounds","[3]; table 5 comparative examples, retained vs inverted C20 configuration",improved biological properties compared to their counterparts with a configuration conversion
same,A2780Cis RI,[4],0.2
same,A2780Cis SI,[4],550.8
same,SI A2780Cis,[4],550.8
same,IC50,"[4]; 72 h, read-out: A2780Cis IC50 (nM)",0.21 nM
same,IC50,[4]; read-out: IC50 (nM) A2780Cis,0.21 nM
same,IC50,"[8]; Homo sapiens, 72 h with compound, MTT, n/a = non-active compound",40.6 nM
same,KG-1 SI,[8]; [15],2.8
same,IC50,"[9]; Homo sapiens, A2780, 72 h with compound, SRB, n/a = non-active compound, read-out: A2780 IC50",0.9 nM
same,A2780 SI,[9]; [15],128.0
same,IC50,"[10]; Homo sapiens, NCI-H23, 72 h with compound, SRB, n/a = non-active compound, read-out: NCI-H23 IC50",5.78 nM
same,NCI-H23 SI,[10]; [15],19.8
same,IC50,"[11]; Homo sapiens, SNU-16, 72 h with compound, MTT, n/a = non-active compound, read-out: SNU-16 IC50",8.64 nM
same,SNU-16 SI,[11]; [15],13.3
same,IC50,"[12]; Homo sapiens, PLC-PRF-5, 72 h with compound, SRB, n/a = non-active compound, read-out: PLC/PRF/5 IC50",5.62 nM
same,PLC/PRF/5 SI,[12]; [15],20.4
same,IC50,"[13]; Homo sapiens, Hs 294T, 72 h with compound, SRB, n/a = non-active compound, read-out: Hs294T IC50",214 nM
same,Hs294T SI,[13]; [15],0.5
CC[C@@H](C(=O)[C@@H](C)[C@@H](O)[C@H](C)[C@@H]1O[C@@H]([C@@H](CC)C(=O)O)CC[C@@H]1C)[C@H]1O[C@]2(C=C[C@@H](NC(=O)c3ccc(F)cc3)[C@]3(CC[C@@](C)([C@H]4CC[C@](O)(CC)[C@H](C)O4)O3)O2)[C@H](C)C[C@@H]1C [FLC-00470-1•Na],anti-proliferative effect compared to that of the parent compound,[3],several times more potent compared to that of the parent compound
CCC(CC)NC(=S)N[C@@H]1C=C[C@]2(O[C@H]([C@@H](CC)C(=O)[C@@H](C)[C@@H](O)[C@H](C)[C@@H]3O[C@@H]([C@@H](CC)C(=O)O)CC[C@@H]3C)[C@@H](C)C[C@H]2C)O[C@@]12CC[C@@](C)([C@H]1CC[C@](O)(CC)[C@H](C)O1)O2 [FLC-00771-1•Na],IC50,[1]; [14],80 nM
same,SI MV4-11,[2],≈8000
same,IC50,[2],< 0.01 nM
same,anti-proliferative effect compared to that of the parent compound,[3],several times more potent compared to that of the parent compound
same,SI A2780Cis,[4],≈8000
same,IC50,[4]; read-out: IC50 (nM) A2780Cis,< 0.01 nM
CC[C@@H](C(=O)[C@@H](C)[C@@H](O)[C@H](C)[C@@H]1O[C@@H]([C@@H](CC)C(=O)O)CC[C@@H]1C)[C@H]1O[C@]2(C=C[C@@H](NC(=S)NC(C)(C)C)[C@]3(CC[C@@](C)([C@H]4CC[C@](O)(CC)[C@H](C)O4)O3)O2)[C@H](C)C[C@@H]1C [FLC-00467-1•Na],IC50,[1]; [14],85.4 nM
same,SI MV4-11,[2],≈853700
same,anti-proliferative effect compared to that of the parent compound,[3],several times more potent compared to that of the parent compound
same,SI A2780Cis,[4],≈853700
CC[C@@H](C(=O)[C@@H](C)[C@@H](O)[C@H](C)[C@@H]1O[C@@H]([C@@H](CC)C(=O)O)CC[C@@H]1C)[C@H]1O[C@]2(C=C[C@@H](NC(=S)SC)[C@]3(CC[C@@](C)([C@H]4CC[C@](O)(CC)[C@H](C)O4)O3)O2)[C@H](C)C[C@@H]1C [FLC-00475-1•Na],anti-proliferative effect compared to that of the parent compound,[3],several times more potent compared to that of the parent compound
CC[C@@H](C(=O)[C@@H](C)[C@@H](O)[C@H](C)[C@@H]1O[C@@H]([C@@H](CC)C(=O)O)CC[C@@H]1C)[C@H]1O[C@]2(C=C[C@@H](NS(=O)(=O)c3c(C)noc3C)[C@]3(CC[C@@](C)([C@H]4CC[C@](O)(CC)[C@H](C)O4)O3)O2)[C@H](C)C[C@@H]1C [FLC-00506-1•Na],IC50,[1]; [14],92.5 nM
same,SI MV4-11,[2],35.3
same,IC50,[2],2.62 nM
same,anti-proliferative effect compared to that of the parent compound,[3],several times more potent compared to that of the parent compound
same,SI A2780Cis,[4],100.3
same,IC50,[4]; read-out: IC50 (nM) A2780Cis,0.92 nM
CC[C@@H](C(=O)[C@@H](C)[C@@H](O)[C@H](C)[C@@H]1O[C@@H]([C@@H](CC)C(=O)O)CC[C@@H]1C)[C@H]1O[C@]2(C=C[C@@H](NC(=O)N[C@@H](C)C(C)(C)C)[C@]3(CC[C@@](C)([C@H]4CC[C@](O)(CC)[C@H](C)O4)O3)O2)[C@H](C)C[C@@H]1C [FLC-00606-1•Na],IC50,[1]; [14],52.4 nM
same,SI MV4-11,[2],≈5240
same,IC50,[2],< 0.01 nM
same,anti-proliferative effect compared to that of the parent compound,[3],several times more potent compared to that of the parent compound
same,SI A2780Cis,[4],≈5240
same,IC50,[4]; read-out: IC50 (nM) A2780Cis,< 0.01 nM
CC[C@@H](C(=O)[C@@H](C)[C@@H](O)[C@H](C)[C@@H]1O[C@@H]([C@@H](CC)C(=O)O)CC[C@@H]1C)[C@H]1O[C@]2(C=C[C@@H](NC(=O)C(C)(C)CCl)[C@]3(CC[C@@](C)([C@H]4CC[C@](O)(CC)[C@H](C)O4)O3)O2)[C@H](C)C[C@@H]1C [FLC-00473-1•Na],IC50,[1]; [14],129 nM
same,SI MV4-11,[2],62.7
same,IC50,[2],2.05 nM
same,anti-proliferative effect compared to that of the parent compound,[3],several times more potent compared to that of the parent compound
same,SI A2780Cis,[4],179.1
same,IC50,[4]; read-out: IC50 (nM) A2780Cis,0.72 nM
CC[C@@H](C(=O)[C@@H](C)[C@@H](O)[C@H](C)[C@@H]1O[C@@H]([C@@H](CC)C(=O)O)CC[C@@H]1C)[C@H]1O[C@]2(C=C[C@@H](NC(=O)C3CCCCC3)[C@]3(CC[C@@](C)([C@H]4CC[C@](O)(CC)[C@H](C)O4)O3)O2)[C@H](C)C[C@@H]1C [FLC-00464-1•Na],anti-proliferative effect compared to that of the parent compound,[3],several times more potent compared to that of the parent compound
CC[C@@H](C(=O)[C@@H](C)[C@@H](O)[C@H](C)[C@@H]1O[C@@H]([C@@H](CC)C(=O)O)CC[C@@H]1C)[C@H]1O[C@]2(C=C[C@@H](NC(=O)C3CCC3)[C@]3(CC[C@@](C)([C@H]4CC[C@](O)(CC)[C@H](C)O4)O3)O2)[C@H](C)C[C@@H]1C [FLC-00463-1•Na],IC50,[1]; [14],191 nM
same,SI MV4-11,[2],96.5
same,IC50,[2],1.98 nM
same,anti-proliferative effect compared to that of the parent compound,[3],several times more potent compared to that of the parent compound
same,SI A2780Cis,[4],266.3
same,IC50,[4]; read-out: IC50 (nM) A2780Cis,0.72 nM
CC[C@@H](C(=O)[C@@H](C)[C@@H](O)[C@H](C)[C@@H]1O[C@@H]([C@@H](CC)C(=O)O)CC[C@@H]1C)[C@H]1O[C@]2(C=C[C@@H](NC(=O)NC(C)(C)C)[C@]3(CC[C@@](C)([C@H]4CC[C@](O)(CC)[C@H](C)O4)O3)O2)[C@H](C)C[C@@H]1C [FLC-00593-1•Na],IC50,[1]; [14],72.2 nM
same,SI MV4-11,[2],≈7220
same,IC50,[2],< 0.01 nM
same,anti-proliferative effect compared to that of the parent compound,[3],several times more potent compared to that of the parent compound
same,SI A2780Cis,[4],≈7220
same,IC50,[4]; read-out: IC50 (nM) A2780Cis,< 0.01 nM
CC[C@@H](C(=O)[C@@H](C)[C@@H](O)[C@H](C)[C@@H]1O[C@@H]([C@@H](CC)C(=O)O)CC[C@@H]1C)[C@H]1O[C@]2(C=C[C@@H](NC(=O)c3ccc(OC(F)(F)F)cc3)[C@]3(CC[C@@](C)([C@H]4CC[C@](O)(CC)[C@H](C)O4)O3)O2)[C@H](C)C[C@@H]1C [FLC-00486-1•Na],anti-proliferative effect compared to that of the parent compound,[3],several times more potent compared to that of the parent compound
